# Assay results reported in patent US11633473B2 (priority 2017, dated 2023).
# Experiments:
# neonatal BMDCs = experiment: BMDC in vitro stimulation with PRR agonists/adjuvants, 20-24 h: cytokines by ELISA, maturation markers by flow cytometry; format: cell-based, C57BL/6 mice
# Description: Briefly, mice were sacrificed and legs removed; bones were surgically cleaned from surrounding tissue, extremities of tibiae and femurs were trimmed with sterile scissors and bone marrow flushed through a 70 μm nylon mesh strainer (Corning Life Sciences). Cell number and viability was determined by trypan blue exclusion. […] Plates were incubated in humidified atmosphere at 37° C., 5% CO2 for 6 days, with one supplement of 10 ml of complete culture medium and rmGM-CSF on day 3. On Day 6, non-adherent and loosely adherent cells were harvested by washing the plate gently with culture medium. Adherent cells were discarded. For flow cytometry analysis, BMDCs were stained (20 minutes at 4° C.) in PBS+FBS 2%+EDTA 2 mM, fixed with formaldehyde 4% (10 minutes at RT) and acquired on a BD LSRFortessa flow cytometer (BD Biosciences) or a Sony spectral analyzer SP6800 (Sony Biotechnology) and data were analyzed using FlowJo v.10 software (Tree Star). For a complete list of antibodies and fluorochromes used in the study see Table 2.
# Rough (Salmonella Minnesota, R595) and smooth (Escherichia coli, O55:B5) lipopolysaccharide (LPS) were purchased from List Biological Laboratories. […] All PRR agonists employed in the studies were chosen based on and verified endotoxin free as indicated by the manufacturers. For stimulation experiments, immature BMDCs generated from newborn and adult mice were plated in round bottom 96-wells non-tissue culture-treated plates at the density of 10^5 cells/well in 200 μl of fresh complete culture medium with rmGM-CSF as described above, with the appropriate stimuli at the concentrations indicated in Table 3. Cells were incubated at 37° C. for 20-24 hours, then supernatant harvested and TNF, IL-6, IL-1β and IL-12p70 concentrations were measured by ELISA (R&D Systems). IFNβ was measured with a bioluminescent ELISA kit (LumiKine, Invivogen). Alternatively, BMDCs were stained and analyzed by flow cytometry as indicated above.
# adult BMDCs = experiment: BMDC in vitro stimulation with PRR agonists/adjuvants, 20-24 h: cytokines by ELISA; format: cell-based, C57BL/6 mice; details: increasing concentrations
# Description: BMDCs were generated from newborn (5-7 days old) and adult (6-12 weeks old) C57BL/6 mice with an adaptation of previously described methods (Dowling et al., 2008, Lutz et al., 1999). Briefly, mice were sacrificed and legs removed; bones were surgically cleaned from surrounding tissue, extremities of tibiae and femurs were trimmed with sterile scissors and bone marrow flushed through a 70 μm nylon mesh strainer (Corning Life Sciences). Cell number and viability was determined by trypan blue exclusion. […] For flow cytometry analysis, BMDCs were stained (20 minutes at 4° C.) in PBS+FBS 2%+EDTA 2 mM, fixed with formaldehyde 4% (10 minutes at RT) and acquired on a BD LSRFortessa flow cytometer (BD Biosciences) or a Sony spectral analyzer SP6800 (Sony Biotechnology) and data were analyzed using FlowJo v.10 software (Tree Star). […]
# Rough (Salmonella Minnesota, R595) and smooth (Escherichia coli, O55:B5) lipopolysaccharide (LPS) were purchased from List Biological Laboratories. […] Cells were incubated at 37° C. for 20-24 hours, then supernatant harvested and TNF, IL-6, IL-1β and IL-12p70 concentrations were measured by ELISA (R&D Systems). IFNβ was measured with a bioluminescent ELISA kit (LumiKine, Invivogen). Alternatively, BMDCs were stained and analyzed by flow cytometry as indicated above. […]
# [1] = Quantification of 2′3′-cGAMP adsorption onto alum by RP-HPLC; details: for % Adsorbed to Alum: 1:10 cGAMP:alum mass ratio, saline
# Description: After vortexing for 10 seconds the sample was placed in a 37° C. incubator. Every 15 minutes the sample was vortexed for an additional 5 seconds and placed back into the incubator. […] Supernatant was immediately removed and placed into an autosampler vial undiluted for analysis by reverse-phase high performance liquid chromatography (RP-HPLC) to determine adsorption as a function of time. RP-HPLC samples were run on a Waters 2695 HPLC equipped with a 2996 photodiode array detector at a wavelength of 254 nm. A gradient was performed using a two mobile phase system of 0.1% trifluoroacetic acid in water and 0.1% trifluoroacetic acid in acetonitrile, on an Agilent Zorbax Eclipse Plus C18, 4.6×150 mm, 5 micron column at 25° C.
# newborn mice = format: in vivo; details: single dose immunization, serum at DOL 35
# newborn C57BL/6 mice = format: in vivo; details: prime-boost DOL 7 and 14, Day 35 post-prime (DOL 42)
# adult C57BL/6 mice = format: in vivo; details: prime-boost i.m., rHA + adjuvant, Day 35 post-prime
smiles,measurement,setting,value
"CCCCNc1nc(N)c2[nH]c(=O)n(Cc3ccc(C(=O)NCC(=O)O)cc3)c2n1 [CL264, reference compound]",IL-12p70 production by neonatal BMDCs,"neonatal BMDCs; most effective non-toxic concentration, 20-24 h",failed to produce IL-12p′70
"Nc1nc2c(ncn2[C@@H]2O[C@@H]3COP(=O)(O)O[C@H]4[C@@H](O)[C@H](n5cnc6c(N)ncnc65)O[C@@H]4COP(=O)(O)O[C@@H]2[C@@H]3O)c(=O)[nH]1 [cGAMP, cyclic guanosine monophosphate (GMP)-adenosine monophosphate (AMP)]","upregulation of surface maturation markers (CD40, CD80, CD86), neonatal vs adult BMDCs",neonatal BMDCs; 20-24 h stimulation,comparable
same,dependence of neonatal BMDC maturation marker expression on type I IFN signaling,"neonatal BMDCs; cGAMP 25 μg/ml, blocking anti-TNF and anti-IFNAR antibodies",type I interferon-dependent manner
same,"upregulation of surface maturation marker expression, cGAMP vs R848","neonatal BMDCs; neonatal and adult BMDCs, different concentrations",more effective than R848
same,IFNβ production,"neonatal BMDCs; newborn BMDCs, increasing concentrations",dose-dependent IFNβ production
same,IFNβ production,adult BMDCs,dose-dependent IFNβ production
same,degradation products during incubation with alum,"[1]; 37° C., over 24 hours",No significant degradation products
same,"Peak Area of cGAMP in supernatant (RP-HPLC, 254 nm)","[1]; 15 min, 37° C.",22.53 mAU
same,% Adsorbed to Alum,"[1]; 15 min, 37° C.",63%
same,"Peak Area of cGAMP in supernatant (RP-HPLC, 254 nm)","[1]; 30 min, 37° C.",22.93 mAU
same,% Adsorbed to Alum,"[1]; 30 min, 37° C.",62.34%
same,"Peak Area of cGAMP in supernatant (RP-HPLC, 254 nm)","[1]; 1 hour, 37° C.",22.22 mAU
same,% Adsorbed to Alum,"[1]; 1 hour, 37° C.",63.51%
same,"Peak Area of cGAMP in supernatant (RP-HPLC, 254 nm)","[1]; 2 hours, 37° C.",20.83 mAU
same,% Adsorbed to Alum,"[1]; 2 hours, 37° C.",65.79%
same,"Peak Area of cGAMP in supernatant (RP-HPLC, 254 nm)","[1]; 4 hours, 37° C.",21.02 mAU
same,% Adsorbed to Alum,"[1]; 4 hours, 37° C.",65.48%
same,"Peak Area of cGAMP in supernatant (RP-HPLC, 254 nm)","[1]; 24 hours, 37° C.",15.02 mAU
same,% Adsorbed to Alum,"[1]; 24 hours, 37° C.",75.33%
same,cGAMP adsorbed onto alum in vitro,"[1]; summary statement in discussion, no time given",about 60%
same,median anti-rHA IgG1 titers,newborn mice,did not induce detectable
same,median anti-rHA IgG2c titers,newborn mice,did not induce detectable
same,median anti-rHA IgG titers,newborn mice,did not induce detectable
same,median anti-rHA IgG1 titers,newborn C57BL/6 mice,24.51×10^3
same,median anti-rHA IgG2c titers,newborn C57BL/6 mice,0.23×10^3
same,median anti-rHA IgG titers,newborn C57BL/6 mice,20.57×10^3
same,median anti-rHA IgG1 titers,adult C57BL/6 mice,0.77×10^6
same,median anti-rHA IgG2c titers,adult C57BL/6 mice,0.82×10^6
same,median anti-rHA IgG titers,adult C57BL/6 mice,increased anti-rHA IgG titers
